Data on three compounds can be found in PMC6222706, “Evaluation of the Antioxidant and Neuroprotectant Activities of New Asymmetrical 1,3-Diketones” (Molecules : A Journal of Synthetic Chemistry and Natural …, 2018).

The IC50 is the concentration that inhibits the measured activity by half. Lower therefore signals greater potency in that assay. One may read the melting point as the temperature of the solid-liquid transition. One may read the solubility as how much of the substance goes into solution per volume. A higher solubility goes with a readily soluble substance.

Data set [1] in a line: Cytotoxicity in SH-SY5Y cells (MTT). The data set is classed as cell-based. Conditions: human, SH-SY5Y neuronal cells, concentration reducing cell viability to 50% of control. The protocol: So, to study the neuroprotectant potential of β-diketones in the SH-SY5Y cell line, we firstly need to determine their cytotoxicity in the same cellular model. […] In addition to that, within each series, the introduction of a second fluorine atom in the left-hand side phenyl ring decreases also the cytotoxicity.
SH-SY5Y cells were seeded into 96-well plates at a density of 5 × 10^3 cells/well and grown in the incubator for 24 h. All compounds tested were dissolved and eventually further diluted in dimethylsulfoxide (DMSO). After overnight incubation, the cells were treated with different test concentrations (5, 10, 20, 50, 100, 150, 200 µM) in a final volume of 200 µL with four replicates each. […] Cell proliferation or viability was measured using the 3-(4,5-dimethylthiazol-2-yl)-2,5-diphenyl tetrazolium bromide (MTT) assay. After 24 h, 20 µL of MTT (5 mg/mL) was added to each well and the plate was incubated at 37 °C in the dark for 2 h. Supernatants were removed and the formazan crystals were solubilized in DMSO (200 µL/well), under 10 min shaking at room temperature. The reduction of MTT was quantified by absorbance at 570 nm Varioskan microplate reader (Thermo Fisher Scientific, Vantaa, Finland). Effects of the test compounds on cell viability were calculated using cells treated with vehicle as control. The data were subjected to linear regression analysis and the regression lines were plotted for the best fit. The IC50 (inhibition of cell viability) concentrations were calculated using the respective dose-response curves.

Data set [2] can be described thus: FRAP (Ferric Reducing Antioxidant Power) assay. The data set is classed as biochemical. As to conditions: for FRAP-TEAC100: Trolox Equivalent Antioxidant Capacity vs 100 µM solution of the substance, from FRAP assay; for FRAP Assay (%) at 100 µM / FRAP Assay (%) at 200 µM: 30 min, 593 nm. On the procedure: The assay was carried out according to the method of Benzie et al. with slight modifications, in a 96-well microplate. FRAP reagent was prepared by mixing 10 mL of 300 mM acetate buffer with 1 mL of 10 mM 2,4,6-tripyridyl-S-triazine (TPTZ) in HCl 40 mM and 1mL of FeCl3·6H2O 20 mM. Firstly, 190 µL of the FRAP reagent were added to all wells of the 96-well plate, followed by the addition to the well of 10 µL of the test compounds dissolved in Ethanol to reach the final concentrations assayed (0, 5, 10, 20, 50, 100, 150, 200 µM). After 30 min incubation in the dark, the absorbance was read at 593 nm. Trolox was used as assay control. Three different assays were carried out by quadruplicate for each compound.

Data set [3] in a line: ABTS radical scavenging assay. As to conditions: for IC50: 30 min incubation, EtOH, absorbance at 734 nm; for ABTS-TEAC100: Trolox Equivalent Antioxidant Capacity vs 100 µM solution of the substance, from ABTS assay. The data set is classed as biochemical. On the procedure:
ABTS^+ radical was produced by reacting 2,2′-azino-bis-3-ethylbenzthiazoline-6-sulphonic acid (ABTS) 7 mM with K2S2O8 2.45 mM, both reactants dissolved in water, and at the volume ratio of 1:1. The mixture was stored in the dark at room temperature for 16 h. The ABTS^+ solution was diluted to give an absorbance of 0.750 ± 0.025 at 734 nm in EtOH. All the compounds tested were dissolved in EtOH. 150 µL of each compound solution was added to the wells of the 96-well plate, followed by the addition of 50 µL of the ABTS^+ radical solution. Final compound concentrations tested were 0, 5, 10, 20, 50, 100, 150, 200 µM. The absorbance change at 734 nm was recorded after 30 min incubation in the dark, and the percentage of radical scavenging was calculated for each concentration relative to a blank containing no scavenger. The degree of decolorization was calculated as the percentage reduction of absorbance. The ABTS^+ radical scavenging activity was calculated as follows: Percentage ABTS^+ radical scavenging activity = {1 − [As/Ac]} × 100(1) where As is the absorbance of the ABTS^+ radical solution containing samples and Ac the absorbance of the control solution without antioxidant. The percentages of ABTS^+ radical reduced were plotted against compound concentration. Trolox was used as a reference antioxidant. All the assays were carried out three times by quadruplicate for each compound.

Data set [4] in a line: DPPH radical scavenging assay. The data set is classed as biochemical. As to conditions: antioxidant concentration that decreases initial DPPH^• concentration by 50%; 30 min, 517 nm. On the procedure: The assay was performed in a 96-well microplate. A 0.2 mM solution of 2,2-diphenyl-1-picryl-hydrazyl-hydrate (DPPH) in ethanol was prepared. All the compounds tested were dissolved in EtOH. Firstly, 150 µL of each compound solution was added to the wells of the 96-well plate, followed by the addition of 50 µL of the DPPH solution. Final compound concentrations tested were 0, 5, 10, 20, 50, 100, 150, 200 µM. The change in absorbance at 517 nm was measured after 30 min incubation in the dark. The free radical scavenging activity was calculated as inhibition using the following Equation (2): Percentage DPPH radical scavenging activity = {1 − [As/Ac]} × 100(2) where As is the absorbance of the DPPH solution containing samples and Ac the absorbance of the control solution without antioxidant but with DPPH. The percentages of DPPH reduced were plotted against compound concentration. The experiment was also conducted using Trolox as reference antioxidant. Assays were performed three times by quadruplicate for each compound.
(DPPH is a stable violet radical that fades when it is reduced.)

The next data set concerns SH-SY5Y cells. As to the kind of experiment: SH-SY5Y neuroprotection assay against H2O2 (MTT). Conditions: compound 5-50 µM for 24 h, then 200 µM H2O2 for 24 h. The data set is classed as cell-based, human. On the procedure: For neuroprotection experiments, SH-SY5Y cells were treated with test compound at different concentrations (5, 10, 20, 30, 40, and 50 µM) for 24 h. After the incubation period, cells were exposed to H2O2 200 µM for 24 h. At the end of the treatment, cell viability was measure with MTT.
Compound neuroprotection under H2O2-induced oxidative stress was assessed by MTT assay. Briefly, SH-SY5Y were seeded into 96-well plates at a density of 3 × 10^3 cells/well and grown in the incubator for 24 h. Cells were pretreated for 24 h with different compound concentrations (5, 10, 20, 30, 40, 50 µM). After the treatment period, cells were exposed to 200 µM H2O2 for 24 h. Cell viability was measured with MTT following the same procedure described above. Cell viability was expressed as the percentage of the control value (cells without treatment with H2O2).

A short description of data set [5]: Kinetic solubility by UV spectrometry in 10 mM PBS. The data set is classed as physicochemical. Conditions: 10 mM phosphate buffered saline, aqueous buffer, kinetic from dmso stock. The protocol:
Among the most important physicochemical parameters in drug-discovery, solubility and chemical stability in aqueous media are the determinants for non-toxic and brain-permeable drug-like compounds with good bioavailability. So, compounds with good aqueous solubility are the best candidates for drug-discovery progression. […] The assays were performed at room temperature, in 10 mM Phosphate Buffered Saline (PBS) from compound stocks in DMSO at 20 mM concentration.
A modified protocol was used from that described by Hoelke et al. for the determination of the kinetic solubility from DMSO compound solutions. A compound calibration curve (compound concentration vs. UV absorption) was prepared on a 48 well plate for each compound with concentrations in the range of 10 µM to […]. Each compound dilution was carried out by pipetting defined volumes of a 20 mM stock compound solution in DMSO into the wells and adding PBS 10 mM to reach a final volume of 500 µL/well. The final amount of DMSO per well was 2%. For the lower compound concentrations, an additional volume of DMSO was added into each well to reach the 2% of DMSO. Then, 200 µL of each dilution was transferred to a new 96 well plate for the measurement of the UV-spectra. One well in each row was left without compound as a blank and its UV absorbance was used as an offset correction. The experiments were carried out by duplicate.
(§1) In parallel compound saturation solutions were obtained and filtered from 20 mM compound stock in DMSO. So, 10 µL of 20 mM stock solution were dispensed to 190 µL of PBS 10 mM. The solutions were mixed, shaken in a microplate shaker for two hours, and then 160 µL of each solution were filtered and transferred to a new well plate for UV absorption measure. The compound stability in PBS 10 mM was determined at 24, 48 and 72 h with solutions prepared as those for the compound calibration curve.
Measurement of the UV-spectra was performed using a Varioskan microplate reader and spectra were taken in the range of 270–600 nm. Spectral bandwidth was set to 5 nm and the data pint interval was 10 nm. […]

A short description of data set [6]: Chemical stability in 10 mM PBS. Conditions: 6b, 7b at 400 µM, curcumin at 50 µM. The data set is classed as physicochemical. On the procedure: It is also important to know compound integrity at those concentrations used in biological assays, and for that, the chemical stability was determined in 10 mM PBS after 6 h, 24 h and 48 h.
as §1

In brackets after ≈: the same amount, converted by molar mass.

`COc1cc(/C=C/C(O)=C/C(=O)c2ccccc2)ccc1O` [Compound 1a, (2Z,4E)-3-Hydroxy-5-(4-hydroxy-3-methoxyphenyl)-1-phenylpenta-2,4-dien-1-one] came in with a melting point of 159.9 °C. In data set [1], this compound returned an IC50 at 24 h of 104 ± 6.7 µM. For the same compound, in data set [2], the FRAP-TEAC100 amounted to 0.59, the “FRAP Assay (%) at 100 µM” value was 32.2% and the “FRAP Assay (%) at 200 µM” value is on record as 55.7%. Further, in data set [3], the 50% inhibitory concentration (IC50) was determined as 50.5 ± 2 µM and the ABTS-TEAC100 was determined as 0.88. For the same compound, the IC50 in data set [4] is 42.3 ± 3.4 µM.
The compound `O=C(/C=C(O)/C=C/c1ccc(O)c(F)c1F)c1ccccc1` [Compound 7a, (2Z,4E)-5-(2,3-Difluoro-4-hydroxyphenyl)-3-hydroxy-1-phenylpenta-2,4-dien-1-one] gave a melting point of 179.3 °C. Also, the IC50 at 24 h in data set [1] stood at 126 ± 8 µM. Also, in data set [2], the FRAP-TEAC100 turned out to be 0.22, the “FRAP Assay (%) at 100 µM” value is given as 14.0% and the “FRAP Assay (%) at 200 µM” value stood at 20.7%. In data set [3], the IC50 stood at 79.6 ± 4.3 µM and the ABTS-TEAC100 is 0.69.
For `COc1cc(/C=C/C(=O)CC(=O)/C=C/c2ccc(O)c(OC)c2)ccc1O` [Curcumin, reference compound], the “Cell viability after H2O2 (neuroprotection)” value in the data set with SH-SY5Y cells is “slight protection”. Moreover, the solubility at 2 h in data set [5] was 24 ± 3 µg/mL (≈ 65.1 µM). For the same compound, the “Remaining Compound (%) 0 h” value in data set [6] (0 h) was 100%. Besides, the “Remaining Compound (%) 6 h” value in data set [6] (6 h) was 55.9 ± 10.6%. Moreover, the “Remaining Compound (%) 24 h” value in data set [6] (24 h) is reported as 42.9 ± 9.0%. Further, in data set [6] (48 h), the “Remaining Compound (%) 48 h” value stood at 38.1 ± 7.4%. Besides, the midpoint of inhibition in data set [1], the IC50 at 24 h, lay at 48.8 ± 5.1 µM.
